Results reported in publication PMC9571063 (Molecules, 2022).
Where “and” joins values, the source holds several entries; their conditions need not be identical. Equal entries are not always repeated. Structures can show the parent of a compound that is named as a salt. Where two headings read alike, the source gives them in different places.

How the values were obtained:
[1] = molecular target: T1, HsCLK2 (Homo sapiens, UniProt P49760); assay: kinase inhibition study by Eurofins; type: biochemical; settings: duplicate
T1 construct: purchased Eurofins (contract assay)
Experimental: (§1) Several inhibition studies for human kinases (HsCLK2, HsCLK3, HsCLK4), as well as the KINOMEscan^SM Assaywere performed by the Eurofins company, following protocols reported on their website.

[2] = molecular target: T2, HsCLK3 (Homo sapiens, UniProt P49761); assay: kinase inhibition study by Eurofins; type: biochemical; settings: duplicate
T2 construct: purchased Eurofins (contract assay)
Experimental: as §1

[3] = molecular target: T3, HsCLK4 (Homo sapiens, UniProt Q9HAZ1); assay: kinase inhibition study by Eurofins; type: biochemical
T3 construct: purchased Eurofins (contract assay)
Experimental: as §1

[4] = cytotoxic assay, nuclei count (Hoechst, HCS); type: cell-based; settings: human, MDA-MB-231 cells (breast carcinoma); 48 h treatment; read-out: Cytotoxic studies IC50 MDA-MB-231
[5] = cytotoxic assay, nuclei count (Hoechst, HCS); type: cell-based; settings: human, MCF7 cells (breast carcinoma); 48 h treatment; read-out: Cytotoxic studies IC50 MCF7
[6] = cytotoxic assay, nuclei count (Hoechst, HCS); type: cell-based, human; settings: human, human skin fibroblasts (non-cancerous reference cells); 48 h treatment; some cells add low/moderate/high amplitude; read-out: Cytotoxic studies IC50 Fibroblasts
[7] = tested on: Human skin fibroblasts; assay: cytotoxic assay, nuclei count (Hoechst, HCS); type: cell-based; settings: summary of Table S2
[8] = molecular target: T4, ARK5 (Homo sapiens, UniProt O60285); assay: KINOMEscan; type: binding; settings: read-out: Percent Control
T4 construct: purchased Eurofins DiscoverX KINOMEscan (scanMAX 468)

[9] = molecular target: T5, BRSK1 (Homo sapiens, UniProt Q8TDC3); assay: KINOMEscan; type: binding; settings: read-out: Percent Control
T5 construct: purchased Eurofins DiscoverX KINOMEscan (scanMAX 468)

[10] = molecular target: T6, CSNK2A2 (Homo sapiens, UniProt P19784); assay: KINOMEscan; type: binding; settings: read-out: Percent Control
T6 construct: purchased Eurofins DiscoverX KINOMEscan (scanMAX 468)

[11] = molecular target: T7, EPHA4 (Homo sapiens, UniProt P54764); assay: KINOMEscan; type: binding; settings: read-out: Percent Control
T7 construct: purchased Eurofins DiscoverX KINOMEscan (scanMAX 468)

[12] = molecular target: T8, FGFR2 (Homo sapiens, UniProt P21802); assay: KINOMEscan; type: binding; settings: read-out: Percent Control
T8 construct: purchased Eurofins DiscoverX KINOMEscan (scanMAX 468)

[13] = molecular target: T9, GRK1 (Homo sapiens, UniProt Q15835); assay: KINOMEscan; type: binding; settings: read-out: Percent Control
T9 construct: purchased Eurofins DiscoverX KINOMEscan (scanMAX 468)

[14] = molecular target: T10, GRK2 (Homo sapiens, UniProt P25098); assay: KINOMEscan; type: binding; settings: read-out: Percent Control
T10 construct: purchased Eurofins DiscoverX KINOMEscan (scanMAX 468)

[15] = molecular target: T11, IKK-epsilon (Homo sapiens, UniProt Q14164); assay: KINOMEscan; type: binding; settings: read-out: Percent Control
T11 construct: purchased Eurofins DiscoverX KINOMEscan (scanMAX 468)

[16] = molecular target: T12, INSRR (Homo sapiens, UniProt P14616); assay: KINOMEscan; type: binding; settings: read-out: Percent Control
T12 construct: purchased Eurofins DiscoverX KINOMEscan (scanMAX 468)

[17] = molecular target: T13, JNK1 (Homo sapiens, UniProt P45983); assay: KINOMEscan; type: binding; settings: read-out: Percent Control
T13 construct: purchased Eurofins DiscoverX KINOMEscan (scanMAX 468)

[18] = molecular target: T14, NIK (Homo sapiens, UniProt Q99558); assay: KINOMEscan; type: binding; settings: read-out: Percent Control
T14 construct: purchased Eurofins DiscoverX KINOMEscan (scanMAX 468)

[19] = molecular target: T15, PFCDPK1(P.falciparum) (Plasmodium falciparum, UniProt P62344); assay: KINOMEscan; type: binding; settings: read-out: Percent Control
T15 construct: purchased Eurofins DiscoverX KINOMEscan (scanMAX 468)

[20] = molecular target: T16, PHKG1 (Homo sapiens, UniProt Q16816); assay: KINOMEscan; type: binding; settings: read-out: Percent Control
T16 construct: purchased Eurofins DiscoverX KINOMEscan (scanMAX 468)

[21] = molecular target: T17, PIK3CA(Q546K) (Homo sapiens, UniProt P42336, Q546K); assay: KINOMEscan; type: binding; settings: read-out: Percent Control
T17 construct: purchased Eurofins DiscoverX KINOMEscan (scanMAX 468)

[22] = molecular target: T18, SGK2 (Homo sapiens, UniProt Q9HBY8); assay: KINOMEscan; type: binding; settings: read-out: Percent Control
T18 construct: purchased Eurofins DiscoverX KINOMEscan (scanMAX 468)

[23] = molecular target: T19, TNIK (Homo sapiens, UniProt Q9UKE5); assay: KINOMEscan; type: binding; settings: read-out: Percent Control
T19 construct: purchased Eurofins DiscoverX KINOMEscan (scanMAX 468)

[24] = molecular target: T20, TYRO3 (Homo sapiens, UniProt Q06418); assay: KINOMEscan; type: binding; settings: read-out: Percent Control
T20 construct: purchased Eurofins DiscoverX KINOMEscan (scanMAX 468)

[25] = molecular target: T21, MmCLK1 (Mus musculus, UniProt P22518); parameters: method as in ref 13 (a number printed in a supplementary file, which may have a reference list of its own: not looked up in the article's list); settings: DB18, cited from earlier work
T21 construct: host or cells: bacteria

[26] = tested on: Caco2; parameters: method as in ref 14 (a number printed in a supplementary file, which may have a reference list of its own: not looked up in the article's list); settings: DB18[a], footnote not given; read-out: Cytotoxic studies IC50 Caco2; cited from earlier work
[27] = tested on: HCT116; parameters: method as in ref 14 (a number printed in a supplementary file, which may have a reference list of its own: not looked up in the article's list); settings: DB18[a], footnote not given; read-out: Cytotoxic studies IC50 HCT116; cited from earlier work

T3 sequence (Q9HAZ1 whole entry): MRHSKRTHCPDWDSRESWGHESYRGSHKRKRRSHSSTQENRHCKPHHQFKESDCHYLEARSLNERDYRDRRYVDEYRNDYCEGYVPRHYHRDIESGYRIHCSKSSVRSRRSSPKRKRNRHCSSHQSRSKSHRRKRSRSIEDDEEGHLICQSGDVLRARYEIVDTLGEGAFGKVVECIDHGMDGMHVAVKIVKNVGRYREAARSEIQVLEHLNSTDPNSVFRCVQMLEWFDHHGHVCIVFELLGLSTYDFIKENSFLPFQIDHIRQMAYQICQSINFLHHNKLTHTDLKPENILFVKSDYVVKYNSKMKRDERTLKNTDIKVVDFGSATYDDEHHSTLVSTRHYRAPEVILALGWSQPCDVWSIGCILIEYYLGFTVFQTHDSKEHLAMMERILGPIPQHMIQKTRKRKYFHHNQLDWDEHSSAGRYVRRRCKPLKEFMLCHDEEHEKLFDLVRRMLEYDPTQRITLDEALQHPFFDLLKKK
T2 sequence (P49761 whole entry): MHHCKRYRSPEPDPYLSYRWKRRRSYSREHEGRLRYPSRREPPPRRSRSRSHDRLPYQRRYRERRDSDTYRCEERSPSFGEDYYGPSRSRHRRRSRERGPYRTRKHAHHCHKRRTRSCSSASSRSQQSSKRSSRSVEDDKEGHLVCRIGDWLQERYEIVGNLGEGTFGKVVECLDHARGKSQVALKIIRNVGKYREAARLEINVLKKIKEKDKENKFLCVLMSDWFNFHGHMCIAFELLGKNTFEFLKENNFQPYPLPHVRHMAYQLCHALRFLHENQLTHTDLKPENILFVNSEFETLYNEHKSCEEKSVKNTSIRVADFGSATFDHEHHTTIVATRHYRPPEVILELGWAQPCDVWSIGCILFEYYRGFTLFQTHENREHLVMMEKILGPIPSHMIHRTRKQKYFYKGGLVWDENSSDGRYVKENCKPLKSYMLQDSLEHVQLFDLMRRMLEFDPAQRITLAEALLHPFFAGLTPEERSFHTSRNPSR
T1 sequence (P49760 whole entry): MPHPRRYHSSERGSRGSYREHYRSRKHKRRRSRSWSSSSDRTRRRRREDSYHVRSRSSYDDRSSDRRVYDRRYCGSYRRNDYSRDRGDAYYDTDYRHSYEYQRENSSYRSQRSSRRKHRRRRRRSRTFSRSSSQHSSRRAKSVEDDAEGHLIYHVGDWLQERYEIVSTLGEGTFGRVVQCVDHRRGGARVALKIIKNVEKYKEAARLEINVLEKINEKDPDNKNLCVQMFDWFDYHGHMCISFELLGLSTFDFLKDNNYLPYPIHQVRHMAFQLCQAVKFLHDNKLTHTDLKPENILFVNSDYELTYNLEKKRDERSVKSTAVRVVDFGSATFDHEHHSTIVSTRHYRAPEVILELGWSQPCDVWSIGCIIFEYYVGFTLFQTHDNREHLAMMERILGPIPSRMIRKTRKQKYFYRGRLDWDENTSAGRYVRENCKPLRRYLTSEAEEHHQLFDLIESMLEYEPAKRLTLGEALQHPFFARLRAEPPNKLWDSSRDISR
T21 sequence (P22518 whole entry): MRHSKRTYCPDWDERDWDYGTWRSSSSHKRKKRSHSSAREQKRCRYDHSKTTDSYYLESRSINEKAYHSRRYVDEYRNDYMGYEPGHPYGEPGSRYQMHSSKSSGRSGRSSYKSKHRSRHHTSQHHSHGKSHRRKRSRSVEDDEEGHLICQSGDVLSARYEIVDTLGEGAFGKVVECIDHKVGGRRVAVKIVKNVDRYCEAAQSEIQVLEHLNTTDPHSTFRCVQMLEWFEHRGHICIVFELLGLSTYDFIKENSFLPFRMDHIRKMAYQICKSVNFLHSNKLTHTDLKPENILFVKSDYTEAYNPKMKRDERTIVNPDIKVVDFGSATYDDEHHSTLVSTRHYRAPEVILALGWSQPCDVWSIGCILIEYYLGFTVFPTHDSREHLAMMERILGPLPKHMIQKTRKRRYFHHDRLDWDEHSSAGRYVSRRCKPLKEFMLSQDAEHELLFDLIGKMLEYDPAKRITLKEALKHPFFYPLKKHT
T8 sequence (P21802 22-821): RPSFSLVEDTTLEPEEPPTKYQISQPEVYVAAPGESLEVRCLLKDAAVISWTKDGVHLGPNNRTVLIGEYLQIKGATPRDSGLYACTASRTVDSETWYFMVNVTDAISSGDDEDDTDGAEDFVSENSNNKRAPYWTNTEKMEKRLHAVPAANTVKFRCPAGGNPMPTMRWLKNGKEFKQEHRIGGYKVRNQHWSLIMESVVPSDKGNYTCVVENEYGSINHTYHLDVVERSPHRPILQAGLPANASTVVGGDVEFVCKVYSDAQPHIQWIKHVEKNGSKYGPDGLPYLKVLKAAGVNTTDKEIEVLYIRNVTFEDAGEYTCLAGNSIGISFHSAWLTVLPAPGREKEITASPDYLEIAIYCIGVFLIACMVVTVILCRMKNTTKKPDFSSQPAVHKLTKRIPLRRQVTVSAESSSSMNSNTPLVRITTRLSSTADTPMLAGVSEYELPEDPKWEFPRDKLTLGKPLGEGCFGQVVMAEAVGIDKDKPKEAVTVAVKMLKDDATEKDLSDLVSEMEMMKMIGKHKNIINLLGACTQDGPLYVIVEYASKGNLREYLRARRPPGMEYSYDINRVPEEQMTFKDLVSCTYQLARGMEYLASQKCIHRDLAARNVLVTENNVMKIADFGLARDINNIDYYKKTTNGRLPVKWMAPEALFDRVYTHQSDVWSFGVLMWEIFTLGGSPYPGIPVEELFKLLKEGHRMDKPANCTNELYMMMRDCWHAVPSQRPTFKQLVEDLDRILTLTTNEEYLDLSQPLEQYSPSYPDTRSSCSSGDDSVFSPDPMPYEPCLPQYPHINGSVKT
T16 sequence (Q16816 whole entry): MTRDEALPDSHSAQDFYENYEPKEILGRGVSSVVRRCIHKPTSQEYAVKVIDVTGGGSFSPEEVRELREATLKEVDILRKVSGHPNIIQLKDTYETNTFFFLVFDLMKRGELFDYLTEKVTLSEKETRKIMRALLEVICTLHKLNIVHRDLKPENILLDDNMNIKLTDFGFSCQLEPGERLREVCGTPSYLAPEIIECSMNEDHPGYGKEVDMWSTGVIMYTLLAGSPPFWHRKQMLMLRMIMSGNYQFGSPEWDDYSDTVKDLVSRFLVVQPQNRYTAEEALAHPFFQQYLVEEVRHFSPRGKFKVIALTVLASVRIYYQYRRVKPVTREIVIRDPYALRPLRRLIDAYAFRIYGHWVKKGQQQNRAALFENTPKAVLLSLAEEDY
T12 sequence (P14616 27-1297): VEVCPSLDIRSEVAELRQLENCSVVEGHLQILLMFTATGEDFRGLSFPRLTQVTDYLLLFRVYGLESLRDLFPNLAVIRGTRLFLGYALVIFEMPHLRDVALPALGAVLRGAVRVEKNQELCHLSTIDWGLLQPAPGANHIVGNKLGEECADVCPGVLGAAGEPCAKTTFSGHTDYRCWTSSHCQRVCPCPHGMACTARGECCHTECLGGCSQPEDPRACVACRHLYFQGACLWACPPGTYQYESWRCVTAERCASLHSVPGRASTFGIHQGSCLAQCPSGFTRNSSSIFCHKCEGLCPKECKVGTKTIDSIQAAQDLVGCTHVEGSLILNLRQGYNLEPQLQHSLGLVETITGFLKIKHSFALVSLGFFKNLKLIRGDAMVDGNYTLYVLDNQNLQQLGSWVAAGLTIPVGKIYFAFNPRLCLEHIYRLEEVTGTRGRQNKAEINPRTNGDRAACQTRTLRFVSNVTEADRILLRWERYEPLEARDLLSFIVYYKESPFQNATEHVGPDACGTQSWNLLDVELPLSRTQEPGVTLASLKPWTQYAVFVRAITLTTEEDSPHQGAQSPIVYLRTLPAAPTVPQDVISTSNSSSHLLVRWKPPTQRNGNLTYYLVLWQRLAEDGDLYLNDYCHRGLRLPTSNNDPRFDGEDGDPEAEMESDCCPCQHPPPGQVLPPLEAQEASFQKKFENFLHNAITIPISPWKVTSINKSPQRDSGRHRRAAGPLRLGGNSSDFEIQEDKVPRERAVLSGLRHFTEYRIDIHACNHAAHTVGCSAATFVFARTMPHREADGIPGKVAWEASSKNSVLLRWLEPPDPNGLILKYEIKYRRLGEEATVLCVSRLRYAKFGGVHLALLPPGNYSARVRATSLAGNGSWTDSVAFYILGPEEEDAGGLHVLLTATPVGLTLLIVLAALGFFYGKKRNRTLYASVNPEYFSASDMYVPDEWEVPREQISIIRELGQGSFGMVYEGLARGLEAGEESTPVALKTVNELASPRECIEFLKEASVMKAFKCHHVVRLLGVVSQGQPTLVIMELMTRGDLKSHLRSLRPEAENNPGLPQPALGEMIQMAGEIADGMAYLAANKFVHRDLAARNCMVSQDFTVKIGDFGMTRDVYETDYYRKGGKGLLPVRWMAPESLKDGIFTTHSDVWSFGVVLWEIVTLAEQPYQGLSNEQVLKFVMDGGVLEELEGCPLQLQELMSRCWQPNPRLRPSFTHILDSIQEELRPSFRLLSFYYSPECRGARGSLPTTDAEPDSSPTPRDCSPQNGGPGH
T18 sequence (Q9HBY8 whole entry): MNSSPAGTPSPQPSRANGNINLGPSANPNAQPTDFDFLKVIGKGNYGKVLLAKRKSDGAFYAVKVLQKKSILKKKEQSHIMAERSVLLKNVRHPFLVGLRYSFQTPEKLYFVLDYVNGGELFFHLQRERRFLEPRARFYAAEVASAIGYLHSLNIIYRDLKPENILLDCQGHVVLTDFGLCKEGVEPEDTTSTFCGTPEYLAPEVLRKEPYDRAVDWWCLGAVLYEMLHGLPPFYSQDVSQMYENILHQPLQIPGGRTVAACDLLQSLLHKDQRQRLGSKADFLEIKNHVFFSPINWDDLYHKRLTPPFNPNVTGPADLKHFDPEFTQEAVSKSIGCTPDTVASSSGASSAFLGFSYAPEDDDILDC

O=C(O)c1ccc(-n2cc(COc3cccc4cnc(Nc5cccc(Cl)c5)nc34)nn2)c([N+](=O)[O-])c1 [12g, 4-(4-(((2-((3-Chlorophenyl)amino)quinazolin-8-yl)oxy)methyl)-1H-1,2,3-triazol-1-yl)-3-nitrobenzoic acid] showed an IC50 [1] of 0.028 µM, an IC50 [2] of 0.339 µM and an IC50 ([3]; duplicate) of 0.055 µM. It also gave an IC50 at 48 h [4] of over 25 µM, an IC50 at 48 h [5] of over 25 µM and an IC50 at 48 h [6] of over 25 µM. For the same compound, the “toxicity towards fibroblasts” value [7] was “non-active”.
Work on COC(=O)c1ccc(-n2cc(COc3cccc4cnc(Nc5cccc(Cl)c5)nc34)nn2)c([N+](=O)[O-])c1 [12f, Methyl 4-(4-(((2-((3-chlorophenyl)amino)quinazolin-8-yl)oxy)methyl)-1H-1,2,3-triazol-1-yl)-3-nitrobenzoate] yielded an IC50 at 48 h [4] of over 25 µM, an IC50 at 48 h [5] of over 25 µM and an IC50 at 48 h [6] of over 25 µM. The “toxicity towards fibroblasts” value [7] was “non-active”.
In the case of O=[N+]([O-])c1cc(CO)ccc1-n1cc(COc2cccc3cnc(Nc4cccc(Cl)c4)nc23)nn1 [12e, 4-(4-(((2-((3-Chlorophenyl)amino)quinazolin-8-yl)oxy)methyl)-1H-1,2,3-triazol-1-yl)-3-nitrobenzyl alcohol], the IC50 [1] is reported as 0.05 µM, the IC50 [2] is reported as 7.5 µM and 7.49 µM and the IC50 [3] is reported as 0.15 to 0.2 µM. It also gave an IC50 ([3]; duplicate) of 0.195 µM, an IC50 at 48 h [4] of 6 µM and an IC50 at 48 h [5] of 4 µM. For the same compound, the IC50 at 48 h [6] was 6 µM and the “toxicity towards fibroblasts” value [7] was “moderate toxicity”.
With Cc1ccc(-n2cc(COc3cccc4cnc(Nc5cccc(Cl)c5)nc34)nn2)c([N+](=O)[O-])c1 [DB18] the remaining binding at 1 µM [8] was 100%, the remaining binding at 1 µM [9] was 100% and the remaining binding at 1 µM [10] was 61%. The remaining binding at 1 µM [11] was 88%, the remaining binding at 1 µM [12] was 100% and the remaining binding at 1 µM [13] was 97%. For the same compound, the remaining binding at 1 µM [14] was 94%, the remaining binding at 1 µM [15] was 96% and the remaining binding at 1 µM [16] was 100%. The remaining binding at 1 µM [17] was 93%, the remaining binding at 1 µM [18] was 86% and the remaining binding at 1 µM [19] was 100%. For the same compound, the remaining binding at 1 µM [20] was 100%, the remaining binding at 1 µM [21] was 96% and the remaining binding at 1 µM [22] was 100%. For the same compound, the remaining binding at 1 µM [23] was 100%, the remaining binding at 1 µM [24] was 100% and the “% of residual activity Mm_CLK1” value ([25]; 1 µM) was 21%. For the same compound, the “% of residual activity Mm_CLK1” value ([25]; 10 µM) was 11%, the IC50 [26] was 37 µM and the IC50 [27] was over 25 µM.
With Cc1ccc(-n2cc(COc3cccc4cnc(Nc5cc(Cl)cc(Cl)c5)nc34)nn2)c([N+](=O)[O-])c1 [7b, N-(3,5-dichlorophenyl)-8-((1-(4-methyl-2-nitrophenyl)-1H-1,2,3-triazol-4-yl)methoxy)quinazolin-2-amine] the IC50 [1] was 0.097 µM, the IC50 [2] was 3.31 µM and the IC50 ([3]; duplicate) was 0.38 µM. The IC50 at 48 h [4] was over 25 µM, the IC50 at 48 h [5] was 24 µM and the IC50 at 48 h [6] was over 25 µM. The “toxicity towards fibroblasts” value [7] was “non-toxic”.
O=[N+]([O-])c1cc(Br)ccc1-n1cc(COc2cccc3cnc(Nc4cccc(Cl)c4)nc23)nn1 [12d, N-(3-Chlorophenyl)-8-((1-(4-bromo-2-nitrophenyl)-1H-1,2,3-triazol-4-yl)methoxy)quinazolin-2-amine] showed an IC50 at 48 h [4] of over 25 µM, an IC50 at 48 h [5] of over 25 µM and an IC50 at 48 h [6] of 13 µM. The “toxicity towards fibroblasts” value [7] was “moderate toxicity”.
In the case of N[C@H]1CC[C@@H](n2cc(COc3cccc4cnc(Nc5cc(Cl)cc(Cl)c5)nc34)nn2)CC1 [16b, 8-((1-((cis)-4-Aminocyclohexyl)-1H-1,2,3-triazol-4-yl)methoxy)-N-(3,5-dichlorophenyl)quinazolin-2-amine hydrochloride], the IC50 [1] is reported as 0.02 µM, the IC50 [2] is reported as 3.26 µM and the IC50 ([3]; duplicate) is reported as 0.083 µM. It also gave an IC50 at 48 h [4] of 2 µM, an IC50 at 48 h [5] of 3 µM and an IC50 at 48 h [6] of 2 µM.
